Measured values as given in PubChem BioAssay AID720589 (Broad Institute, 2013).
Values joined by “and” are separate entries in the source; they are usually repeats but may differ in a detail not shown here. Identical values can stand only once.

System: HepG2 viability, ATP luminescence (CellTiter-Glo), 72 h
Assay: HepG2 hepatoma cell cytotoxicity, dose response, cytotoxicity control, CellTiter-Glo luminescence, cherry-pick, set 3 (AID 720589)

First: Cc1ccc(OCCNC(=O)c2cccc(S(=O)(=O)NCc3ccccc3)c2)cc1
Second: C[C@@H]1CN([C@@H](C)CO)C(=O)c2cccc(NS(=O)(=O)c3ccccc3)c2O[C@@H]1CN(C)Cc1ccc(C(=O)Nc2ccccc2N)cc1
The AC35 of the first is 9.1-fold higher: 19.3 µM for the first, 2.11 µM for the second.

`O=c1cc(CN2CCN(Cc3ccccc3)CC2)c2ccc(O)c(O)c2o1` and `O=C1Nc2cc(C(=O)NCCN3CCCCCC3)ccc2S/C1=C\c1ccccc1` are within 1.5-fold of each other in AC35: 10.3 µM for the first, 10.7 µM for the second.

`CC(C)c1oc(=O)cc2c1[C@@H](O)[C@H]1OC(=O)[C@@]3(C)CC[C@@H](O)[C@@]2(C)C13` (some centres not stated) and `C=C1C(=O)OC2C1CCC(C)C1(O)C=CC(=O)C21C` (configuration not stated) are within 1.5-fold of each other in AC35: 19.7 µM for the first, 16.4 µM for the second.

First: CC1(C)N=C(N)N=C(N)N1c1ccc(OCCCOc2ccccc2)c(Cl)c1
Second: COc1ccccc1C(CCNCc1ccc(N(C)C)cc1)c1ccc(OC(C)C)cc1 (configuration not stated)
The AC35 of the first is 2.1-fold higher: 9.77 µM for the first, 4.74 µM for the second.

Going from `Nc1ccc(Cn2ccc3c4c(N)nc(N)nc4ccc32)cc1` to `COC(=O)c1ccccc1-c1c2ccc(=N)cc-2oc2cc(N)ccc12`, the AC35 rises from 0.137 µM to 10.2 µM (74-fold).

`C=CCOC(=O)c1sc(NC(=O)c2ccc(OC)cc2)nc1C` and `COc1ccc(C(CCNCc2ccc(OC(C)C)cc2)C(C)C)cc1` (configuration not stated) are within 1.5-fold of each other in AC35: 6.33 µM for the first, 9.44 µM for the second.

Compared with `COc1ccc(S(=O)(=O)Nc2cccc3c2O[C@H](CN(C)Cc2ccc(C(=O)Nc4ccccc4N)cc2)[C@H](C)CN([C@@H](C)CO)C3=O)cc1`, `C[C@@H]1CN([C@@H](C)CO)C(=O)c2cccc(NS(=O)(=O)c3ccc(Cl)cc3)c2O[C@@H]1CN(C)Cc1ccc(C(=O)Nc2ccccc2N)cc1` is 1.9-fold lower in AC35: 4.44 µM for the first, 2.38 µM for the second.

Going from `O=C(c1nnsc1S(=O)c1ccc(Cl)cc1)N1CCOCC1` (configuration not stated) to `Cc1ccc(C)c(S(=O)(=O)N2CCN(c3ncnc4sccc34)CC2)c1`, the AC35 falls from 7.87 µM to 4.76 µM (1.7-fold).

First: Cc1ccc(/C=C2\SC(=S)N(CCCC(=O)NNC(=O)c3ccccc3O)C2=O)cc1
Second: O=C1NC(=O)N(c2ccccc2)C(=O)/C1=C\C=C\c1ccccc1
The AC35 of the first is 3.2-fold higher: 16.9 µM for the first, 5.21 µM for the second.

Going from `CC1OC(OC2CC(O)C3(CO)C4C(O)CC5(C)C(C6=CC(=O)OC6)CCC5(O)C4CCC3(O)C2)C(O)C(O)C1O` (configuration not stated) to `COC1C(O)C(C)OC(OC2CCC3(C)C(CCC4C3C(O)CC3(C)C(C5=CC(=O)OC5)CCC43O)C2)C1O` (configuration not stated), the AC35 rises from 0.129 µM to 0.204 µM (1.6-fold).

Going from `O=C(Nc1ccc(Br)cc1)c1ccc(F)c(S(=O)(=O)N2CCN(c3ccccn3)CC2)c1` to `C[C@H]1CN([C@@H](C)CO)C(=O)c2cc(NS(=O)(=O)c3ccc(Cl)cc3)ccc2O[C@H]1CN(C)Cc1ccc(C(=O)Nc2ccccc2N)cc1`, the AC35 rises from 2.69 µM to 7.39 µM (2.7-fold).

Compared with `Cc1cc(C)cc(N2C(=O)NC(=O)/C(=C\C=C\c3ccco3)C2=O)c1`, `Cc1cc2sc3ccc(C#CC4(O)CCCCC4)cc3c(=O)c2cc1C` is 3-fold higher in AC35: 7.27 µM for the first, 21.6 µM for the second.

`OC[C@H]1[C@@H](c2ccc(C#CC3CCCC3)cc2)[C@@H]2CN(CCC(F)(F)F)CCCCN12` and `COc1ccc(NC(=O)N2CCCCN3[C@@H](CO)[C@H](c4ccc(C5=CCCCC5)cc4)[C@@H]3C2)cc1` are within 1.5-fold of each other in AC35: 9.23 µM for the first, 10.9 µM for the second.

First: N#CC(=C1C=CC(=NO)C(Cl)=C1)c1ccccc1
Second: C=C(C(=O)c1ccccc1)C(C)C(=C)C(=O)c1ccccc1
The AC35 of the first is 3.8-fold lower: 2.66 µM for the first, 10.2 µM for the second.

Compared with `C[C@@H]1O[C@@H](O[C@@H]2C=C3CC[C@@H]4C(CC[C@]5(C)[C@@H](c6ccc(=O)oc6)CC[C@]45O)[C@@]3(C)CC2)[C@H](O)[C@H](O)[C@H]1O` (some centres not stated), `C[C@]12CC[C@H]3[C@@H](CC[C@]4(O)C[C@@H](O)CC[C@]34C=O)[C@@]1(O)CC[C@@H]2C1=CC(=O)OC1` is 13-fold higher in AC35: 0.0735 µM for the first, 0.93 µM for the second.

`C[C@@H]1CCCCO[C@H](CN(C)Cc2ccc(C(F)(F)F)cc2)[C@H](C)CN([C@H](C)CO)C(=O)c2cc(NC(=O)CCCN(C)C)ccc2O1` and `COc1ccc(S(=O)(=O)Nc2ccc3c(c2)C(=O)N([C@H](C)CO)C[C@@H](C)[C@@H](CN(C)CC2CCCCC2)OCCCC[C@H](C)O3)cc1` are within 1.5-fold of each other in AC35: 9.15 µM for the first, 12.2 µM for the second.

Going from `CC(=O)OC1CC(OC2C(O)CC(OC3C(O)CC(OC4CCC5(C)C(CCC6C5CCC5(C)C(C7=CC(=O)OC7)C(O)CC65O)C4)OC3C)OC2C)OC(C)C1OC1OC(CO)C(O)C(O)C1O` (configuration not stated) to `CC(=O)OC1CC(OC2C(O)CC(OC3C(O)CC(OC4CCC5(C)C(CCC6C5CCC5(C)C(C7=CC(=O)OC7)CCC65O)C4)OC3C)OC2C)OC(C)C1OC1OC(CO)C(O)C(O)C1O` (configuration not stated), the AC35 falls from 0.475 µM to 0.0996 µM (4.8-fold).

Compared with `O=C(N/N=C/c1cnc(N2CCCCC2)s1)c1ccc(C(F)(F)F)cc1`, `O=C(Nc1ccc2c(c1)OCO2)N1C[C@@H]2N[C@H](C1)C2c1ccc(C=Cc2ccccc2)cc1` (some centres not stated) is 2.6-fold lower in AC35: 14.1 µM for the first, 5.42 µM for the second.

First: CN=c1scc(-c2ccccc2F)n1/N=C/c1ccc[nH]1
Second: CC(C)N1C/C(=C/c2ccsc2)C(=O)/C(=C/c2ccsc2)C1
The AC35 of the first is 18-fold lower: 0.638 µM for the first, 11.7 µM for the second.

`COC(=O)C[C@@H]1CC[C@@H]2[C@@H](COc3ccc(NC(=O)Nc4ccc(C#N)cc4)cc3C(=O)N2C)O1` and `C[C@@H]1CN([C@@H](C)CO)C(=O)c2cc(NS(=O)(=O)c3ccc(Cl)cc3)ccc2O[C@@H]1CN(C)Cc1ccc(C(=O)Nc2ccccc2N)cc1` are within 1.5-fold of each other in AC35: 14.4 µM for the first, 9.68 µM for the second.

`COC1C(C)OC(OC2CC(C)(O)Cc3cc4c(c(O)c32)C(=O)c2c(O)cc3c(c2C4=O)OC2OC3(C)C(O)C(N(C)C)C2O)C(OC)C1(C)OC` (configuration not stated) gave an AC35 of 0.133 µM.

For `C[C@H](O)C#Cc1ccc2c(c1)O[C@@H](CN(C)Cc1ccc(-c3ccccc3)cc1)[C@H](C)CN([C@@H](C)CO)S2(=O)=O`, the AC35 was 3.54 µM and 6.95 µM.
